Test system: patients after acute myocardial infarction
Assay: Life quality, Seattle Angina Questionnaire (SAQ), same clinical trial
Format: in vivo, human
Text: 3508 patients who were in accordance with the diagnostic standards of AMI for 28 days to 2 years and differentiated as Qi deficiency and blood stagnation syndrome by TCM were studied. 0.5 g Chinese medicine composition prepared by the method of EXAMPLE 1 (Coded as QSYQ) was administrated half an hour after meal, 3 times per day.
There were 19 questions in the Seattle angina questionnaire (SAQ), including 5 parts: physical limitation (PL), anginal stability (AS), anginal frequency (AF), treatment satisfaction (TS) and disease perception (DP). After being given necessary explanation by doctors, the questions were answered independently by patients.
They included the overall survival time, angina pectoris score, TCM symptom score and life quality score, where angina pectoris score, TCM symptom score and life quality score were evaluated at randomization, in 1st, 3rd, 6th, 9th, 12th month after treatment and 18th month after follow-up.
All evaluation results of SAQ were described during the period of observation, and Wilcoxon rank sum test was used for inter-group comparison.
The evaluation results in the SAQ were depicted in different observations, and inter-group comparison was tested by Wilcoxon Rank-sum test.

In the case of `CC(=O)Oc1ccccc1C(=O)O` [Control group, aspirine], the “SAQ 2nd question: Slightly increased, cases” value (1 month after treatment, PP) is reported as 43, the “SAQ 2nd question: Slightly reduced, % of cases” value (1 month after treatment, PP) is reported as “(30.18%)” and the “SAQ 2nd question: Slightly reduced, cases” value (1 month after treatment, PP) is reported as 447. The “SAQ 3rd question: 1-2 times per week, % of cases” value (1 month after treatment, PP) was “(30.18%)”, the “SAQ 3rd question: 1-2 times per week, cases” value (1 month after treatment, PP) was 447 and the “SAQ 3rd question: 1-3 times per day, % of cases” value (1 month after treatment, PP) was “(2.90%)”. For the same molecule, the “SAQ 3rd question: 1-3 times per day, cases” value (1 month after treatment, PP) was 43, the “SAQ 3rd question: <1 time per week, % of cases” value (1 month after treatment, PP) was “(16.75%)” and the “SAQ 3rd question: <1 time per week, cases” value (1 month after treatment, PP) was 248. The “SAQ 3rd question: No onset, % of cases” value (1 month after treatment, PP) was “(0.00%)”, the “SAQ 3rd question: No onset, cases” value (1 month after treatment, PP) was 0 and the “SAQ 3rd question: ≧3 times per week, % of cases” value (1 month after treatment, PP) was “(49.63%)”. The “SAQ 3rd question: ≧3 times per week, cases” value (1 month after treatment, PP) was 735, the “SAQ 3rd question: ≧4 times per day, % of cases” value (1 month after treatment, PP) was “(0.54%)” and the “SAQ 3rd question: ≧4 times per day, cases” value (1 month after treatment, PP) was 8. The “SAQ Question 1-3: Mildly limited, number of patients” value (1 month after treatment, PP) was 114, the “SAQ Question 1-3: Mildly limited, percent of patients” value (1 month after treatment, PP) was “(7.67%)” and the “SAQ Question 1-3: Moderately limited, number of patients” value (1 month after treatment, PP) was 25. For the same molecule, the “SAQ Question 1-3: Moderately limited, percent of patients” value (1 month after treatment, PP) was “(1.68%)”, the “SAQ Question 1-3: Not limited, number of patients” value (1 month after treatment, PP) was 1064 and the “SAQ Question 1-3: Not limited, percent of patients” value (1 month after treatment, PP) was “(71.60%)”. The “SAQ Question 1-3: Other reasons, number of patients” value (1 month after treatment, PP) was 7, the “SAQ Question 1-3: Other reasons, percent of patients” value (1 month after treatment, PP) was “(0.47%)” and the “SAQ Question 1-3: Severely limited, number of patients” value (1 month after treatment, PP) was 5. The “SAQ Question 1-3: Severely limited, percent of patients” value (1 month after treatment, PP) was “(0.34%)”, the “SAQ Question 1-3: Slightly limited, number of patients” value (1 month after treatment, PP) was 271 and the “SAQ Question 1-3: Slightly limited, percent of patients” value (1 month after treatment, PP) was “(18.24%)”. For the same molecule, the “SAQ Question 1-4: Mildly limited, number of patients” value (1 month after treatment, PP) was 303, the “SAQ Question 1-4: Mildly limited, percent of patients” value (1 month after treatment, PP) was “(20.43%)” and the “SAQ Question 1-4: Moderately limited, number of patients” value (1 month after treatment, PP) was 138. The “SAQ Question 1-4: Moderately limited, percent of patients” value (1 month after treatment, PP) was “(9.31%)”, the “SAQ Question 1-4: Not limited, number of patients” value (1 month after treatment, PP) was 521 and the “SAQ Question 1-4: Not limited, percent of patients” value (1 month after treatment, PP) was “(35.13%)”. For the same molecule, the “SAQ Question 1-4: Other reasons, number of patients” value (1 month after treatment, PP) was 11, the “SAQ Question 1-4: Other reasons, percent of patients” value (1 month after treatment, PP) was “(0.74%)” and the “SAQ Question 1-4: Severely limited, number of patients” value (1 month after treatment, PP) was 27. For the same molecule, the “SAQ Question 1-4: Severely limited, percent of patients” value (1 month after treatment, PP) was “(1.82%)”, the “SAQ Question 1-4: Slightly limited, number of patients” value (1 month after treatment, PP) was 483 and the “SAQ Question 1-4: Slightly limited, percent of patients” value (1 month after treatment, PP) was “(32.57%)”. For the same molecule, the “SAQ Question 1-5: Mildly limited, number of patients” value (1 month after treatment, PP) was 278, the “SAQ Question 1-5: Mildly limited, percent of patients” value (1 month after treatment, PP) was “(18.76%)” and the “SAQ Question 1-5: Moderately limited, number of patients” value (1 month after treatment, PP) was 166. For the same molecule, the “SAQ Question 1-5: Moderately limited, percent of patients” value (1 month after treatment, PP) was “(11.20%)”, the “SAQ Question 1-5: Not limited, number of patients” value (1 month after treatment, PP) was 546 and the “SAQ Question 1-5: Not limited, percent of patients” value (1 month after treatment, PP) was “(36.84%)”. The “SAQ Question 1-5: Other reasons, number of patients” value (1 month after treatment, PP) was 9, the “SAQ Question 1-5: Other reasons, percent of patients” value (1 month after treatment, PP) was “(0.61%)” and the “SAQ Question 1-5: Severely limited, number of patients” value (1 month after treatment, PP) was 24. For the same molecule, the “SAQ Question 1-5: Severely limited, percent of patients” value (1 month after treatment, PP) was “(1.62%)”, the “SAQ Question 1-5: Slightly limited, number of patients” value (1 month after treatment, PP) was 459 and the “SAQ Question 1-5: Slightly limited, percent of patients” value (1 month after treatment, PP) was “(30.97%)”. The “SAQ Question 1-9: Mildly limited, % of cases” value (1 month after treatment, PP) was “(16.54%)”, the “SAQ Question 1-9: Mildly limited, cases” value (1 month after treatment, PP) was 239 and the “SAQ Question 1-9: Moderately limited, % of cases” value (1 month after treatment, PP) was “(21.45%)”. For the same molecule, the “SAQ Question 1-9: Moderately limited, cases” value (1 month after treatment, PP) was 310, the “SAQ Question 1-9: Not limited, % of cases” value (1 month after treatment, PP) was “(2.98%)” and the “SAQ Question 1-9: Not limited, cases” value (1 month after treatment, PP) was 43. The “SAQ Question 1-9: Other reasons, % of cases” value (1 month after treatment, PP) was “(6.44%)”, the “SAQ Question 1-9: Other reasons, cases” value (1 month after treatment, PP) was 93 and the “SAQ Question 1-9: Severely limited, % of cases” value (1 month after treatment, PP) was “(42.70%)”. The “SAQ Question 1-9: Severely limited, cases” value (1 month after treatment, PP) was 617, the “SAQ Question 1-9: Slightly limited, % of cases” value (1 month after treatment, PP) was “(9.90%)” and the “SAQ Question 1-9: Slightly limited, cases” value (1 month after treatment, PP) was 143. For the same molecule, the “SAQ 2nd question: Clearly increased, % of cases” value (3 months after treatment, FAS) was “(0.92%)”, the “SAQ 2nd question: Clearly increased, cases” value (3 months after treatment, FAS) was 16 and the “SAQ 2nd question: Clearly reduced, % of cases” value (3 months after treatment, FAS) was “(21.15%)”. For the same molecule, the “SAQ 2nd question: Clearly reduced, cases” value (3 months after treatment, FAS) was 368, the “SAQ 2nd question: Same, % of cases” value (3 months after treatment, FAS) was “(42.13%)” and the “SAQ 2nd question: Same, cases” value (3 months after treatment, FAS) was 733. For the same molecule, the “SAQ 2nd question: Slightly increased, % of cases” value (3 months after treatment, FAS) was “(3.79%)”, the “SAQ 2nd question: Slightly increased, cases” value (3 months after treatment, FAS) was 66 and the “SAQ 2nd question: Slightly reduced, % of cases” value (3 months after treatment, FAS) was “(32.01%)”. For the same molecule, the “SAQ 2nd question: Slightly reduced, cases” value (3 months after treatment, FAS) was 557, the “SAQ 3rd question: 1-2 times per week, % of cases” value (3 months after treatment, FAS) was “(32.01%)” and the “SAQ 3rd question: 1-2 times per week, cases” value (3 months after treatment, FAS) was 557. The “SAQ 3rd question: 1-3 times per day, % of cases” value (3 months after treatment, FAS) was “(3.79%)” and the “SAQ 3rd question: 1-3 times per day, cases” value (3 months after treatment, FAS) was 66.

From US9211310B2, “Use of a Chinese medicine composition in preparing medicaments for treating secondary prevention of myocardial infarction” (TASLY PHARMACEUTICAL GROUP CO., LTD, priority 2010, dated 2015)
